Among the data in PubChem BioAssay AID179 (DTP/NCI, 2004) are EC50, IC50 and outcome values, retold here.

The subject of this assay is CEM cells HIV-1 protection, formazan growth assay. Put plainly: NCI AIDS Antiviral Assay. The note with it: for IC50: measured here: growth of uninfected CEM cells. The method in brief: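 Protection of CEM cells against HIV-1 measured as cell growth via soluble formazan read-out, with five concentrations tested on both infected and uninfected cells; failure to protect may reflect toxicity.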

Activity calls are given as the source filed them.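 The calls were made as follows: active = compounds giving half or more protection of infected cells from virus-caused growth loss, again on retest; inactive = the rest.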 A value given as a limit tells only on which side of the number the result lay.

With `COC(=O)C1CCOC(C)N1C(=O)OC(C)(C)C` (stereo not drawn), the EC50 was over 200 µM and the half-inhibitory concentration (IC50) was over 200 µM.

Take `CCOP(=O)(OCC)/C(C#N)=C/c1ccc(C(F)(F)F)cc1`: the EC50 is over 107 µM and the IC50 is 57.5 µM.

As to `[Cl][Bi]([Cl])([c]1ccccc1)([c]1ccccc1)[c]1ccccc1`, the EC50 is over 19.5 µM and the IC50 amounted to 3.39 µM.

For `CC1C2=C(CC(C)(C)CC2=O)NC2=C1C(=O)CC(C)(C)C2`, the EC50 is over 200 µM and the 50% inhibitory concentration (IC50) amounted to 166 µM.

Take `COc1ccc(/C=C2/CSCC3=C2NC(=S)NC3c2ccc(OC)c(OC)c2OC)c(OC)c1OC` (stereo not drawn): the EC50 is over 200 µM and the 50% inhibitory concentration (IC50) was determined as 8.51 µM.

For `CCOc1ccc2nc(NC(=O)CC(C)=O)sc2c1`, the EC50 was over 200 µM and the IC50 is 27.5 µM.

Turning to `NC(=O)c1cc(/C=C/c2ccccc2)on1`, the EC50 was over 200 µM and the IC50 was over 200 µM.

Regarding `Cc1c(C#N)c(N)n(C2OCC(O)C(O)C2O)c(=S)c1C#N` (stereo not drawn), the outcome was inactive.

Turning to `CCOC(=O)NP(=O)(NNc1ccccc1)NNc1ccccc1`, the result was inactive.

For `CCOC(=O)NCC(=O)NCC(=O)NCC(N)=O`, the EC50 was over 200 µM and the IC50 is over 200 µM.

For `CCOC(=O)c1c2ccc(/C=C/c3ccccn3)ccc-2c(C(=O)OCC)c1N`, the EC50 is over 6.76 µM and the IC50 was over 6.76 µM.

As to `CC(NC(=O)/C(=C/c1ccccc1O)NC(=O)c1ccccc1)C(=O)O` (stereo not drawn), the EC50 was over 200 µM and the 50% inhibitory concentration (IC50) is over 200 µM.

Regarding `CC(C)OP(=O)(OC(C)C)C1=NN(c2ccc([N+](=O)[O-])cc2)C(N)(N)S1`, the EC50 was over 617 µM and the IC50 amounted to 135 µM.

`O=C1CNC(=O)c2[nH]cnc2N1`: the result was inactive.

Turning to `O=C(O)CCCCCCCCCCOc1ccc(I)cc1`, the EC50 is over 200 µM and the IC50 is 28.2 µM.

For the molecule `O=C(O)[C@@H]1C[C@@H](O)CN1C(=O)OCc1ccccc1`, the outcome was inactive.

For `CC1(C)CCCCCC(C)(CCCCCCCCCCCO)C1=O` (stereo not drawn), the EC50 was over 200 µM and the IC50 was determined as 30.2 µM.

For `COc1ccc(C)cc1C1CCC(=O)O1` (stereo not drawn), the EC50 was over 1200 µM and the IC50 was over 1200 µM.

On to `OC(c1ccccc1)(c1ccccc1)C1CC1c1ccncc1` (stereo not drawn), for which the EC50 was over 200 µM and the IC50 is 117 µM.

Regarding `CC(=O)c1c(O)cc(O)cc1-c1cc(=O)c2c(O)ccc(C(C)=O)c2o1`, the EC50 is over 200 µM and the IC50 came out at 170 µM.

As for `COc1ccc(O)c(/C(C)=N/NC(=S)N(C)C)c1`, the EC50 was over 200 µM and the IC50 is 10.7 µM.

Consider `c1ccc2c(c1)NC(SSC1Nc3ccccc3S1)S2` (stereo not drawn), for which the EC50 is over 200 µM and the IC50 is over 200 µM.

As to `CC(=O)c1ccc(NCc2cc(O)ccc2O)cc1`, the EC50 is over 200 µM and the IC50 stood at 10.7 µM.

In the case of `CCCCCSCCCCCCCC(=O)O`, the EC50 is over 200 µM and the IC50 worked out at 58.9 µM.

As for `CCOP(=O)(OCC)/C(=C/NC(=S)c1ccncc1)C(=O)OC`, the EC50 was 126 µM and the 50% inhibitory concentration (IC50) came to 186 µM.

Regarding `C=CS(=O)(=O)O`, the EC50 is over 200 µM and the IC50 is over 200 µM.

On to `COc1ccc(/C=C\c2cc(OC)c(OC)c(OC)c2)cc1OC(=O)CC(NC(=O)OC(C)(C)C)C(=O)OC(C)(C)C` (stereo not drawn), for which the EC50 is over 2 µM and the IC50 was 0.00331 µM.

As for `CC(=O)[CH-]C(C)=O.CC(=O)[CH-]C(C)=O.N=CC=N.[Sn+2]`, the EC50 is over 69.2 µM and the half-inhibitory concentration (IC50) stood at 1.45 µM.

As for `O=C1C2=C(/C=C/c3ccccc3)OCCC2=NN1c1ccccc1`, the EC50 is over 42.7 µM and the IC50 was 7.59 µM.

As to `COc1ccccc1/C=C(\C#N)C(=O)c1ccccc1`, the EC50 is over 20 µM and the IC50 was over 20 µM.

Take `COC(=O)C(/C(=N/N)C(=O)Nc1cc(Cl)c(Cl)cc1Cl)c1nc2ccc(Cl)cc2[nH]c1=O` (stereo not drawn): the EC50 is over 50.1 µM and the IC50 was over 50.1 µM.

For the molecule `CNC(=O)CC1NC(=O)c2csc(n2)-c2ccc(-c3nc(C4=NC(C(=O)N5CCCC5C(N)=O)CO4)cs3)nc2-c2csc(n2)-c2csc(n2)C(C(C)C)NC(=O)CNC(=O)c2csc(n2)C(C(C)C)NC(=O)c2nc1sc2C` (stereo not drawn), the EC50 was over 10 µM and the IC50 is over 10 µM.

`CC1=C(CC/C(C)=C/CCC2(C)CCC([C@H](C)C(=O)O)OO2)C(C)(C)CCC1` (stereo partly drawn) (tested in a mixture with another compound): the outcome was inactive.

As for `[CH3][Sn]([CH3])([CH3])[O]C(=O)C(O)c1ccccc1` (stereo not drawn), the outcome was inactive.

Regarding `CSC1(C)CC2C(CC1N1CCOCC1)C2(C)C` (stereo not drawn), the EC50 was over 95.5 µM and the IC50 is over 95.5 µM.

On to `COc1ccc2cc1Oc1cc3c(cc1OC)CC[N+](C)(C)C3Cc1ccc(cc1)Oc1c(OC)c(OC)cc3c1C(C2)[N+](C)(C)CC3` (stereo not drawn), for which the EC50 was over 200 µM and the half-maximal inhibitory concentration (IC50) was over 200 µM.

As for `Nc1ccc2oc(=O)c(C(=O)O)cc2c1`, the EC50 was over 363 µM and the IC50 was 162 µM.

In the case of `CC(=O)OC1CC2C(C)(C)CCC[C@]2(C=O)C2=C1C(O)=C(C(C)C)C(=O)C2=O` (stereo partly drawn), the outcome was inactive.

As to `CCCC(=O)OCC1OC2OC(C)(C)OC2C2OC(C)(C)OC12` (stereo not drawn), the outcome was inactive.

For `OC1/C(=C/c2ccccc2)CNC/C1=C\c1ccccc1` (stereo not drawn), the EC50 is over 129 µM and the IC50 was 79.4 µM.

On to `O=C1C2C3SC(c4c3ccc3ccccc43)C2C(=O)N1c1ccccc1` (stereo not drawn), for which the EC50 is over 2.95 µM and the half-maximal inhibitory concentration (IC50) was over 2.95 µM.

As to `Cc1cc2ncn(C3CCCCO3)c2cc1C` (stereo not drawn), the EC50 was over 200 µM and the IC50 is over 200 µM.

In the case of `O=C(c1ccccc1)N1OC12CCCCC2`, the EC50 is over 200 µM and the IC50 worked out at 51.3 µM.

On to `CC(C(=O)c1cc(O)c(O)cc1C(O)(C(F)(F)F)C(F)(F)F)C(O)(C(F)(F)F)C(F)(F)F` (stereo not drawn), for which the EC50 was 70.8 µM and the IC50 was over 100 µM.

For `COc1cc2c(c(OC)c1OC)-c1ccc(SC)c(=S)cc1[C@@H](NC(C)=O)CC2`, the result was inactive.

As to `O=C(O)c1ccc(O)c(N=Nc2cc(S(=O)(=O)O)c3ccccc3c2O)c1`, the EC50 was over 25.7 µM and the half-maximal inhibitory concentration (IC50) was over 25.7 µM.

`N#C/C(C(=S)Nc1ccccc1)=C(/N)N1CCCC1`: the EC50 was over 200 µM and the IC50 stood at 105 µM.

Consider `COc1ccc2c(=O)c(-c3ccccc3)c(C)oc2c1`, for which the EC50 was over 200 µM and the IC50 was 75.9 µM.

As to `CC(C)(C)c1ccc(-c2nc3ccc([N+](=O)[O-])cc3c(=O)o2)cc1`, the EC50 is over 200 µM and the IC50 amounted to 8.91 µM.

In the case of `Cn1cc2ccccc2c1-c1nc(F)nc(OCC(=O)[C@H]2CCC3[C@@H]4CCC5=CC(=O)CC[C@]5(C)C4[C@@H](O)C[C@@]32C)n1` (stereo partly drawn), the EC50 is over 9.12 µM and the IC50 came out at 2.75 µM.

For the molecule `CSc1ccc(/C=N\C(=N)SN)cc1C`, the EC50 is over 200 µM and the IC50 was 18.6 µM.

For `Cc1ccc(-n2cc(-c3ccc(Cl)cc3)c3c2N=CN2NC(c4ccco4)=NC32)cc1` (stereo not drawn), the EC50 is over 100 µM and the half-inhibitory concentration (IC50) was 74.1 µM.

In the case of `O=c1[nH][nH]c(=O)n1CCCCCCn1c(=O)[nH][nH]c1=O`, the EC50 was over 200 µM and the IC50 is over 200 µM.

Take `O=c1c2ccccc2c(=O)c2c1cc(Cl)c1[nH]c3c([nH]c12)c(Cl)cc1c(=O)c2ccccc2c(=O)c13`: the EC50 was over 7.41 µM and the IC50 is over 7.41 µM.

As for `CCOC(=O)C1=C(c2ccccc2)C12N(Cc1ccccc1)C(=O)C2(c1ccccc1)c1ccccc1` (stereo not drawn), the EC50 was over 200 µM and the IC50 stood at 11 µM.

On to `CN(C)CC[N+]1=Nc2cccc3cccc(c23)N1`, for which the outcome was inactive.

As to `COc1ccc(C(=O)/C=C/c2ccc(OCCSCCCCCCCCCCSCCOc3ccc(/C=C/C(=O)c4ccc(OC)c(OC)c4)cc3)cc2)cc1OC`, the result was inactive.

For the molecule `COC(=O)c1ccc(/C=C2\Oc3cc(O)ccc3C2=O)cc1`, the EC50 is over 200 µM and the concentration for half-maximal inhibition (IC50) came out at 182 µM.

With `Nc1ncc2ncn(C3CCC(CO)O3)c2n1` (stereo not drawn), the EC50 was over 200 µM and the IC50 was over 200 µM.

On to `O=C(NNCC(O)COc1ccccc1)c1ccccc1` (stereo not drawn), for which the EC50 was over 200 µM and the IC50 was over 200 µM.

Consider `Cn1cnc2[nH]c(=O)n(OS(=O)(=O)c3ccccc3)c(=O)c21`, for which the EC50 is over 195 µM and the IC50 worked out at 151 µM.

Take `CCCCCCCNC1=C(O)c2ccccc2C(=O)C1=O`: the EC50 was over 200 µM and the IC50 turned out to be 55 µM.

`C=C(CO)[C@H]1Oc2ccc(C(C)=O)cc2[C@@H]1O`: the EC50 is over 200 µM and the half-maximal inhibitory concentration (IC50) was over 200 µM.

On to `CN(C)[C@@H]1C(=O)C(C(=O)NCN2CCN(C(=N)N=C(N)N)CC2)=C(O)[C@@]2(O)C(=O)C3=C(O)c4c(O)cccc4[C@@](C)(O)[C@H]3C[C@@H]12`, for which the EC50 was over 37.2 µM and the IC50 is 0.257 µM.

With `C1#CCCCCCCC#CCCCCC1.[C-]#[O+].[C-]#[O+].[C-]#[O+].[C-]#[O+].[C-]#[O+].[C-]#[O+].[C-]#[O+].[C-]#[O+].[C-]#[O+].[C-]#[O+].[C-]#[O+].[C-]#[O+].[Co].[Co].[Co].[Co]`, the EC50 is over 2.57 µM and the IC50 is over 2.57 µM.

For `CN(C)N=Nc1ccc(S(N)(=O)=O)cc1`, the EC50 was over 295 µM and the IC50 was 37.2 µM.

On to `CC12CC3CC(C)(C1)CC(CN=C(N)CS)(C3)C2`, for which the EC50 was over 200 µM and the IC50 came out at 31.6 µM.

Consider `CCOc1ccc2nc(NC(=O)C3C4CCC(O4)C3C(=O)O)sc2c1` (stereo not drawn), for which the EC50 is over 200 µM and the IC50 is 135 µM.

For the molecule `O=C(O)C1CCC(c2ccc(Cl)cc2Cl)N1` (stereo not drawn), the EC50 is over 200 µM and the IC50 is over 200 µM.

Consider `CCOC(=O)CSc1nc(N)c2c(-c3ccccc3)c3c(nc2n1)CCCC3`, for which the EC50 is over 200 µM and the IC50 is over 200 µM.

For `CCCCN(CCCC)c1ccc(/C=C2/C=Cc3ccccc32)cc1`, the EC50 was over 11.2 µM and the IC50 was over 11.2 µM.

Regarding `O=[N+]([O-])c1ccc(N/N=C2\C=CCCC2)c([N+](=O)[O-])c1`, the EC50 is over 200 µM and the IC50 is over 200 µM.

One may read the EC50 as the concentration giving half of the maximal effect. A word on the IC50: it is the midpoint of a concentration-inhibition curve. High values mean weaker potency in that assay, low ones greater potency in that assay.
